Reference: US20220088024A1, “METHODS FOR TREATING CANCER USING TOZADENANT” (Biotie Therapies, Inc., priority 2018, published 2022)
“And” between values parts separate entries of the source, which are not always exact repeats. Identical values can stand only once.

Assays:
[1] = tested on: AT-3ova CD73+ tumour (mouse breast carcinoma cell line AT-3); test: Example 1: anti-tumor responses of SYN-115 in the AT-3ova CD73+ tumour cell mouse model (tumor area); format: in vivo, C57/BL6 mice
Method: The C57BL/6 mouse breast carcinoma cell line AT-3 was obtained from Dr. Trina Stewart (Griffith University, Nathan, QLD, Australia. Tumor cell lines were transduced to express chicken ovalbumin peptide and CD73 as previously described (1, 2, 3). Tumor cells are periodically verified to be Mycoplasma negative by the Victorian Infectious Diseases References Lab (Melbourne, VIC, Australia) by PCR analysis. Tumor cells were grown in DMEM supplemented with 10% FCS, GlutaMAX, and penicillin/streptomycin. 5×10^5 cells were resuspended in PBS and injected s.c. into C57/BL6 mice in a 100 μL volume. At day 14 tumors were measured and mice were randomized into distinct treatment groups to ensure that each group had tumors of similar size at the onset of treatment. Mice were treated i.p. at days 14, 18, 22, and 26 with either isotype control (2A3; 200 μg/mouse) or anti-PD-1 mAb (RMP1-14, 200 μg/mouse) and where indicated SYN-115 (Batch 71236AA002) at the indicated dose or vehicle control once-daily via oral gavage on days 14 to 29. To calculate a dose of SYN-115, mouse weight was estimated to be 20 g per mouse. Therefore, 100 mg/kg=2 mg per mouse in 200 μL, which is equivalent to 10 mg/ml. […] Tumor sizes were determined by width * length and mice were culled when tumors reached the ethical limit of 150 mm^2.

[2] = tested on: CT26 colon carcinoma tumor; test: Example 4: anti-tumor responses of SYN-115 in the CT26 tumor mouse model (tumor area, survival); format: in vivo, BALB/c mice; set-up: key: tumor area, width*length, in mm^2
Method: The BALB/c mouse colon carcinoma cell line CT26 was cultured in RPMI supplemented with 10% FCS, GlutaMAX, and penicillin/streptomycin. Tumor cells are periodically verified to be Mycoplasma negative by the Victorian Infectious Diseases References Lab (Melbourne, VIC, Australia) by PCR analysis. 1×10^5 cells were resuspended in PBS and injected s.c. into BALB/c mice in a 100 μL volume. At day 9, tumors were measured and mice were randomized into distinct treatment groups to ensure that each group had tumors of similar size at the onset of treatment. Mice were treated i.p. at days 9, 13 and 17 with either isotype control (2A3; 200 μg/mouse) or anti-PD-1 mAb (RMP1-14, 200 μg/mouse) and where indicated, SYN-115 (Batch 71236AA002) at the indicated dose or vehicle control once-daily via oral gavage on days 14 to 29. To calculate a dose of SYN-115 mouse weight was estimated to be 20 g per mouse. Therefore, 100 mg/kg=2 mg per mouse in […] which is equivalent to 10 mg/ml. To make up 40 mL, 400 milligrams of SYN-115 was weighed and added into a Falcon tube, then 1 mL of Tween 80 was added and mixed into a paste and then 39 mL of 1% Methyl Cellulose was added. The solution was vortexed and then left on a rotating mixer for at least 2 hours and maintained at 4° C. Tumor measurements were taken 2-3 times per week. Tumor sizes were determined by width * length and mice were culled when tumors reached the ethical limit of 150 mm^2.

[3] = tested on: CT26 colon carcinoma tumor; test: Example 7: SYN-115 dose range as single agent in the CT26 tumor mouse model (tumor area, survival); format: in vivo, BALB/c mice; set-up: key: tumor area in mm^2 (width × length)
Method: The BALB/c mouse colon carcinoma cell line CT26 was cultured in RPMI supplemented with 10% FCS, GlutaMAX, and penicillin/streptomycin. Tumor cells are periodically verified to be Mycoplasma negative by the Victorian Infectious Diseases References Lab (Melbourne, VIC, Australia) by PCR analysis. 1×10^5 cells were resuspended in PBS and injected s.c. into BALB/c mice in a 100 μL volume. At day 7 tumors were measured and mice were randomized into distinct treatment groups to ensure that each group had tumors of similar size at the onset of treatment. Mice were treated with SYN-115 (Batch 71236AA006) at the indicated dose or vehicle control once-daily via oral gavage on days 7 to 20. To calculate a dose of SYN-115 mouse weight was estimated to be 20 g per mouse. Therefore, 100 mg/kg=2 mg per mouse in 200 μL, which is equivalent to 10 mg/ml. To make up 40 mL, 400 milligrams of SYN-115 was weighed and added into a Falcon tube, then 1 mL of Tween 80 was added and mixed into a paste and then 39 mL of 1% Methyl Cellulose was added. The solution was vortexed and then left on a rotating mixer for at least 2 hours and maintained at 4° C. Tumor measurements were taken 2-3 times per week. Tumor sizes were determined by width * length and mice were culled when tumors reached the ethical limit of 150 mm^2.

Compound: COc1ccc(N2CCOCC2)c2sc(NC(=O)N3CCC(C)(O)CC3)nc12 [SYN-115, 4-hydroxy-4-methyl-piperidine-1-carboxylic acid (4-methoxy-7-morpholin-4-yl-benzothiazol-2-yl)-amide]
- Tumor size (width * length) ([1]; 2A3+SYN-115 (100 mg/kg), Day 6): 23.5 mm^2 and 27.03 mm^2 and 30.74 mm^2 and 17.5 mm^2 and 33.6 mm^2
- Tumor size (width * length) ([1]; Anti-PD-1 (200 ug)+SYN-115 (100 mg/kg), Day 0): 13.76 mm^2 and 14 mm^2 and 17.2 mm^2 and 17.49 mm^2 and 26.22 mm^2 and 26.4 mm^2
- Raw Tumor Measurements ([2]; 2A3 (200 μg/mouse)+SYN-115 (30 mg/kg), Day 0): 12.71 and 14.85 and 16.32 and 18.92 and 20.16 and 22.36
- Raw Tumor Measurements ([2]; 2A3 (200 μg/mouse)+SYN-115 (30 mg/kg), Day 4): 37.62 and 42.12 and 40.7 and 53.2 and 38.4 and 52.56
- Raw Tumor Measurements ([2]; 2A3 (200 μg/mouse)+SYN-115 (30 mg/kg), Day 13): 146.41 and 150.7 and 93.93 and 186.83
- Raw Tumor Measurements ([2]; 2A3 (200 μg/mouse)+SYN-115 (30 mg/kg), Day 15): 188.94 and 100.8
- Raw Tumor Measurements ([2]; 2A3 (200 μg/mouse)+SYN-115 (30 mg/kg), Day 19): 186.12
- Raw Tumor Measurements ([2]; 2A3 (200 μg/mouse)+SYN-115 (100 mg/kg), Day 0): 12.76 and 14.8 and 17 and 18.9 and 20.5 and 21.12
- Raw Tumor Measurements ([2]; 2A3 (200 μg/mouse)+SYN-115 (100 mg/kg), Day 4): 44.73 and 41.31 and 42.7 and 41.76 and 49.64 and 25.85
- Raw Tumor Measurements ([2]; 2A3 (200 μg/mouse)+SYN-115 (100 mg/kg), Day 6): 53.4 and 59.78 and 73.04 and 58.32 and 71.76 and 42.92
- Raw Tumor Measurements ([2]; 2A3 (200 μg/mouse)+SYN-115 (100 mg/kg), Day 8): 66.75 and 90.2 and 89 and 87.4 and 94.08 and 51.84
- Raw Tumor Measurements ([2]; 2A3 (200 μg/mouse)+SYN-115 (100 mg/kg), Day 13): 187.53 and 175.56 and 213.12 and 203.68 and 164.56 and 110.4
- Raw Tumor Measurements ([2]; 2A3 (200 μg/mouse)+SYN-115 (100 mg/kg), Day 15): 151.42
- Raw Tumor Measurements ([2]; Anti-PD-1 (200 ug)+SYN-115 (30 mg/kg), Day 22): 108 and 136.64 and 120.64
- Raw Tumor Measurements ([2]; Anti-PD-1 (200 ug)+SYN-115 (30 mg/kg), Day 25): 160.95 and 151.2 and 159.6
- Tumor area, individual mice ([3]; SYN-115 10 mg/kg, Day 0, 10 mg/kg): 4.86 and 6.44 and 7.56 and 8.37 and 8.84 and 11.2
- Tumor area, individual mice ([3]; SYN-115 10 mg/kg, Day 2, 10 mg/kg): 6.16 and 6.75 and 7.36 and 15.2 and 9.45 and 14.06
- Tumor area, individual mice ([3]; SYN-115 10 mg/kg, Day 4, 10 mg/kg): 15.75 and 12.16 and 22.55 and 23.52 and 8.36 and 26.95
- Tumor area, individual mice ([3]; SYN-115 10 mg/kg, Day 7, 10 mg/kg): 20.7 and 14.04 and 41.44 and 34.77 and 6.24 and 46.92
- Tumor area, individual mice ([3]; SYN-115 10 mg/kg, Day 9, 10 mg/kg): 30.53 and 22.09 and 52.08 and 50.37 and 0 and 66.99
- Tumor area, individual mice ([3]; SYN-115 10 mg/kg, Day 11, 10 mg/kg): 44.1 and 31.32 and 70.68 and 66.42 and 0 and 89.24
- Tumor area, individual mice ([3]; SYN-115 10 mg/kg, Day 14, 10 mg/kg): 52.8 and 48.96 and 108.1 and 114.45 and 0 and 125.08
- Tumor area, individual mice ([3]; SYN-115 10 mg/kg, Day 16, 10 mg/kg): 91.44 and 67.86 and 132.84 and 135.42 and 0 and 179.55
- Tumor area, individual mice ([3]; SYN-115 10 mg/kg, Day 18, 10 mg/kg): 136.71 and 100.98 and 202.5 and 119.88 and 0
- Tumor area, individual mice ([3]; SYN-115 10 mg/kg, Day 21, 10 mg/kg): 175.74 and 162 and 160 and 0
- Tumor area, individual mice ([3]; SYN-115 10 mg/kg, Day 25): 0
- Tumor area, individual mice ([3]; SYN-115 10 mg/kg, Day 29): 0
- Tumor area, individual mice ([3]; SYN-115 10 mg/kg, Day 32): 0
- Tumor area, individual mice ([3]; SYN-115 10 mg/kg, Day 35): 0
- Tumor area, individual mice ([3]; SYN-115 10 mg/kg, Day 37): 0
- Tumor area, individual mice ([3]; SYN-115 30 mg/kg, Day 0, 30 mg/kg): 5 (2×) and 6.24 and 7.56 and 8.7 and 12.48
- Tumor area, individual mice ([3]; SYN-115 30 mg/kg, Day 2, 30 mg/kg): 12.6 (2×) and 8.12 and 9.28 and 12.95 and 8.4
- Tumor area, individual mice ([3]; SYN-115 30 mg/kg, Day 4, 30 mg/kg): 21.6 (2×) and 15.96 and 13.65 and 24.48 and 10.56
- Tumor area, individual mice ([3]; SYN-115 30 mg/kg, Day 7, 30 mg/kg): 42.21 (2×) and 25 and 25.5 and 30.21 and 30.24
- Tumor area, individual mice ([3]; SYN-115 30 mg/kg, Day 9, 30 mg/kg): 50.16 (2×) and 35.4 and 29.68 and 47.61 and 31.9
- Tumor area, individual mice ([3]; SYN-115 30 mg/kg, Day 18, 30 mg/kg): 204.8 (2×) and 114 and 189.23 and 202.86 and 125.4
- Tumor area, individual mice ([3]; SYN-115 30 mg/kg, Day 21, 30 mg/kg): 153.4 and 179.4
- Raw Tumor Measurements ([3]; SYN-115 (1 mg/kg), Day 0, 1 mg/kg): 5.25 and 6.72 and 8.37 and 7.84 and 9.6 and 10.36
- Raw Tumor Measurements ([3]; SYN-115 (1 mg/kg), Day 2, 1 mg/kg): 12.95 and 12.54 and 15.6 and 13.6 and 12.71 and 15.84
- Raw Tumor Measurements ([3]; SYN-115 (1 mg/kg), Day 4, 1 mg/kg): 14.8 and 22.95 and 21 and 24.99 and 20.4 and 24.19
- Raw Tumor Measurements ([3]; SYN-115 (1 mg/kg), Day 16, 1 mg/kg): 144.1 and 103.55 and 103.74 and 155.61
- Raw Tumor Measurements ([3]; SYN-115 (1 mg/kg), Day 18, 1 mg/kg): 208.68 and 167.24 and 138.6
- Raw Tumor Measurements ([3]; SYN-115 (1 mg/kg), Day 21): 173.46
- Raw Tumor Measurements ([3]; SYN-115 (5 mg/kg), Day 0, 5 mg/kg): 4.8 and 7.8 and 7.54 and 8.84
- Raw Tumor Measurements ([3]; SYN-115 (5 mg/kg), Day 2, 5 mg/kg): 13.12 and 11.16 and 13.26 and 10.36
- Raw Tumor Measurements ([3]; SYN-115 (5 mg/kg), Day 4, 5 mg/kg): 20.8 and 11.2 and 18.45 and 19.52
- Raw Tumor Measurements ([3]; SYN-115 (5 mg/kg), Day 25, 5 mg/kg): 163.8 and 83.52
- Raw Tumor Measurements ([3]; SYN-115 (5 mg/kg), Day 29): 101.76
- Raw Tumor Measurements ([3]; SYN-115 (5 mg/kg), Day 32): 124.74
- Raw Tumor Measurements ([3]; SYN-115 (5 mg/kg), Day 35): 146.52
- Raw Tumor Measurements ([3]; SYN-115 (5 mg/kg), Day 37): 161.59
